Measured values from patent publication US11369595B2, “Use of tryptophan metabolites for treating muscle atrophy” (METABRAIN RESEARCH, priority 2016, dated 2022).

Assays:
C2C12 muscle cells = assay: Measurement of protein synthesis in C2C12 cells (radio-labeled leucine incorporation); format: cell-based; conditions: for effect on protein synthesis in C2C12 muscle cells: 150 min incubation, radio-labeled leucine, versus DMSO control
Protocol: The cells are counted and seeded at the density of 20 000 cells per well in a 24-well plate in DMEM medium containing glucose in a proportion of 4.5 g/l and supplemented with fetal calf serum (10%) and with antibiotics (penicillin and streptomycin). Forty-eight hours layer, the myoblasts are induced to differentiate by partial serum deprivation (2% instead of 10%) for 5 days. The cells are then placed in medium without glucose or leucine (Krebs medium) for 1 h at 37° C., then incubated for 150 min in the presence of the products to be tested (DMSO (control), kynurenic acid or anthranilic acid or quinolinic acid or picolinic acid or 3OH-kynurenine) or reference (IGF-1, 100 ng/ml) in serum-free DMEM medium containing 2.5 μCi/ml radio-labeled leucine. At the end of the incubation, the supernatants are removed and the cells are lysed in 0.1N NaOH solution for 30 min. The radioactivity is measured in the cell fraction and the total amount of proteins is determined by assaying according to the Lowry method. Each condition is evaluated at least with n=6; IGF-1, 100 ng/ml is our control for stimulating protein synthesis. The results are expressed in cpm/μg of proteins after 150 min of incubation or as a percentage relative to the control condition. The results are expressed as % of the control and a statistical test is carried out: Dunnett's or Dun test (*p<0.05, **p<0.01, ***p<0.001 versus control). The results obtained with kynurenic acid, anthranilic acid, quinolinic acid, picolinic acid and 3OH-kynurenin are represented in FIGS. 1 to 5.

loss of muscle mass = conditions: mice on a protein-poor diet, supplementation; cited from earlier work
[1] = test system: myostatin gene expression in C2C12 muscle cells; assay: Measurement of myostatin gene expression in C2C12 cells (RT-qPCR); format: cell-based; conditions: 6 hours of incubation, standardized to beta-actin
Protocol: The C2C12 myoblast cells (ATCC CRL-1772) are seeded in 24-well plates at the density of 30 000 cells per well and cultured in a DMEM medium containing glucose in a proportion of 4.5 g/l and supplemented with fetal calf serum (10%) and with antibiotics (penicillin and streptomycin). Forty-eight hours later, the myoblasts are induced to differentiate by partial serum deprivation (2% instead of 10%) for 5 days. The cells are then placed in a serum-free, glucose-depleted medium (DMEM containing 1 g/l of glucose) in the presence of the molecules to be tested (DMSO (control) or IGF-1 (100 ng/ml) or kynurenic acid) or of the references (IGF-1 at the concentration of 100 ng/ml) for 6 h. […] The samples analyzed all contain […] of cDNA, a qPCR buffer including the enzyme, the oligonucleotide mixture and the intercalating agent (sybergreen), and the pair of primers specific for the gene studied, strategically chosen between two exon sequences and at the final concentration of 200 nM. […] A fluorescence threshold is established by the program of the machine. […] It is this value which forms the basis for the calculations to relatively quantify the DNA. […] The primers used are given in table 1 below: At the end of the incubation, the expression of the myostatin gene is measured by RT-qPCR and standardized using the beta-actin housekeeping gene. […]

C2C12 muscle fibers = assay: Evaluation of the diameter of the C2C12 muscle fibers; format: cell-based; conditions: incubation for 3 days, 100 μM
Protocol: The C2C12 myoblast cells (ATCC CRL-1772) are seeded in 8-well plates treated with glycerol, at the density of 10 000 cells per well and cultured in DMEM medium containing glucose in a proportion of 4.5 g/l and supplemented with fetal calf serum (10%) and with antibiotics (penicillin and streptomycin). Forty-eight hours layer, the myoblasts are induced to differentiate by partial serum deprivation (2% instead of 10%) for 3 days. The cells are then placed in a serum-free, glucose-depleted medium (DMEM containing 1 g/l of glucose) in the presence of the molecules to be tested (DMSO (control) or kynurenic acid) or the references (IGF-1 at the concentration of 10 ng/ml or dexamethasone at 10 μM) for 3 days. At the end of the culture, the cells are rinsed and fixed using a 2.5% glutaraldehyde/0.1% triton solution for 1 h at ambient temperature. The cell layer is covered with DAPI (fluorescent labeling of the cell nucleus). After storage in the dark for 16 h in the cold, the slides are observed under a fluorescence microscope (Carl Zeiss, AxioVert 200) and the images are analyzed using the Axiovision 4.1 software for measuring the diameter of the fibers. A representative image of each condition is shown. A statistical test is carried out: Dunnett's or Dun test (*p<0.05, **p<0.01, ***p<0.001 versus control). The results obtained with kynurenic acid are represented in FIG. 7.

[2] = test system: muscle atrophy induced by immobilization; assay: Muscle atrophy induced by immobilization in mice; format: in vivo; conditions: CD1 mice, 7 days immobilization, 3 mg/kg per day in the drinking water, compared with control group
Text: Limb immobilization is known to induce skeletal muscle atrophy involving mechanisms linked to protein degradation, to a change in muscle fiber types, to oxidative stress or inflammatory mechanisms. Briefly, male 8-9-week-old CD1 mice were used in this study. The foot of the left hindlimb was immobilized for 7 days according to the procedure described by Caron et al. (2009), in the dorso-tibial flexion position, by means of a surgical staple. The other foot (right hindlimb) is used as a control. For the duration of the immobilization, one group of animals (n=12) received a treatment with kynurenic acid (3 mg/kg per day) in the drinking water. Another group of animals served as a control (n=16 animals). At the end of the 7 days of study, the animals were sacrificed in order to remove the Tibialis anterial muscle from the two hindlimbs. For each animal, the difference between the weight of the muscle of the immobilized limb and the free limb is calculated, then related back to the bodyweight. The results are expressed as weight loss of the immobilized limb relative to the control limb (in mg per g of body weight), and a statistical test is carried out: Student's test (*p<0.05, **p<0.01, ***p<0.001 versus control group).

## Nc1c(O)cccc1C(=O)C[C@H](N)C(=O)O [3OH-kynurenine, reference compound]
C2C12 muscle cells
  effect on protein synthesis in C2C12 muscle cells: no effect on protein synthesis

## O=C(O)c1ccccn1 [picolinic acid]
C2C12 muscle cells
  effect on protein synthesis in C2C12 muscle cells: significantly induce protein synthesis

## N[C@@H](Cc1c[nH]c2ccccc12)C(=O)O [TRP, Tryptophan]
Loss of muscle mass
  effect on loss of muscle mass: capable of reducing the loss of muscle mass

## Nc1ccccc1C(=O)O [anthranilic acid]
C2C12 muscle cells
  effect on protein synthesis in C2C12 muscle cells: significantly induce protein synthesis

## O=C(O)c1cccnc1C(=O)O [quinolinic acid]
C2C12 muscle cells
  effect on protein synthesis in C2C12 muscle cells: significantly induce protein synthesis

## O=C(O)c1cc(=O)c2ccccc2[nH]1 [kynurenic acid]
C2C12 muscle cells
  effect on protein synthesis in C2C12 muscle cells: significantly induce protein synthesis
C2C12 muscle cells; after 150 min of incubation
  dose dependence of stimulation of protein synthesis: dose-dependent stimulation of protein synthesis
[1]
  myostatin gene expression: significant dose-dependent inhibition
C2C12 muscle fibers
  size (diameter) of the C2C12 muscle fibers: increase in the size of the C2C12 muscle fibers
[2]
  loss of muscle (Tibialis anterior) mass induced by immobilization: significantly decreases the loss of muscle

## Nc1ccccc1C(=O)C[C@H](N)C(=O)O [L-kynurenine]
Loss of muscle mass
  effect on loss of muscle mass: varies according to the dose tested (beneficial or negative)
